Data on two molecules can be found in publication PMC6950563, “Epinecidin-1 Protects against Methicillin Resistant Staphylococcus aureus Infection and Sepsis in Pyemia Pigs” (Marine Drugs, 2019).

Read-outs that look alike come from different tables or passages of the source. Residues, ends and D or L forms follow the SMILES beside them.

Series [1] relates to MRSA. In kind it is cell-based, Staphylococcus aureus. As to conditions: for pathogens killed (time-kill): 4 h. The method, then:
At 4, 8, 12, and 24 h post-treatment, the number of viable bacteria (CFU) was determined for the time-kill experiment.

The nature of series [2]: Acute intravenous toxicity in pigs. In kind it is in vivo, pig. The method, then:
Acute intravenous (i.v.) toxicity was analyzed as described previously. Acute i.v. toxicity was assessed after administration of 25, 50, 100, and 200 mg/kg body weight of Epi-1 in pigs; 1 to 5 animals per group. After injection, the animals were kept under visual observation up to 1 h, and the rate of mortality and clinical symptoms were recorded every 2 h for a total of 24 h. For blood analysis, 5 mL of heparin-stabilized blood was taken and stored at 4 °C. Serum was separated from the blood sample using a serum separator gel tube (catalogue number 367955, Becton-Dickinson, Franklin Park, NJ, USA), according to the vendor’s instructions. Serum GOT, GPT, UA, BUN, and CRT activity levels were determined using an automated analyzer (FUJI DRI-CHEM 4000i, Fujifilm, Tokyo, Japan) according to the manufacturers’ instructions. Standard controls were analyzed before each determination.

The conditions of series [3]: 25% human serum in RPMI, 37 °C, LC-MS/MS. The method, then:
Human serum (catalogue number BP2657100, Fisher Scientific, Millersburg, PA, USA) was suspended in RPMI medium up to 25%, and 0.990 mL was transferred to a 1.5 mL micro centrifuge tube. The serum-containing tube was incubated at 37 °C for 15 min, and 10 mg/mL Epi-1 was added to obtain a final peptide concentration of 100 μg/mL. At constant time intervals 100 μL of the experimental mix was taken out, and serum protein was precipitated in two volumes of 95% ethanol solution. The cloudy precipitate was cooled at 4 °C for 15 min, and then the serum was precipitated and pelleted by centrifugation at 18,000 × g for 2 min. The peptide stability in the supernatant was then analyzed by a liquid chromatography tandem mass spectrometer (LC-MS/MS) (Mission Biotech, Taipei, Taiwan).

For series [4] the following is noted: pigs.
Description: (§1) Approximately 3 mL of blood was taken from the carotid artery at 0, 10, 20, 30, and 60 minutes and at 60 minutes intervals thereafter until 600 minutes had passed.
A further series can be described thus: in vivo. Particulars: pig, iv.
In series [5] the test system is MRSA. The series is described as follows: Survival of MRSA-infected pyemia pigs. In kind it is in vivo, pig. On the procedure: Administration of bacteria or mock treatment followed by flushing with 5 mL of sterile isotonic saline was performed by i.v. through a 22G catheter inserted in the right femoral vein. The catheter was removed after administration. Another 22G catheter was then inserted into the left femoral vein and secured with stitches. The catheter was flushed with 10 mL sterile isotonic saline solution, and then with 2 mL of 100 I.U./mL sterile heparin solution (catalogue number H3149, Sigma Chemical Co., St. Louis, MO, USA) for blood sampling. During blood sampling, the initial 5 mL of blood was discarded to avoid the heparin carryover. Five pigs were inoculated with the MRSA strain (1 × 10^9 CFU/kg) only. […] Samples were subsequently collected for histopathology, microbial studies, and bacterial count.

Series [6] deals with MRSA. In words: Histopathology (H&E) of major organs of infected pigs. In kind it is in vivo, pig. As to conditions: vancomycin 0.5 mg/kg, day 7. The method, then:
Tissue samples from the heart valve, left diaphragmatic lobe of the lung, left lateral lobe of the liver, and left kidney were collected and fixed in PBS buffer containing 4% formaldehyde for 24 h. Fixed samples were immersed in different concentrations of xylene and ethanol before embedding in paraffin. The processed samples were sectioned at 8–10 µm using a microtome. The sections were stained for histological analysis with hematoxylin and eosin (H&E) after rehydration.

Where [7] appears, read: pig, Epi-1 200 mg/kg single i.v., n=1, died in one hour after injection.

Description for in vivo: as §1

Take `CC[C@H](C)[C@H](NC(=O)[C@H](CCSC)NC(=O)[C@H](CCCCN)NC(=O)CNC(=O)[C@H](C)NC(=O)[C@H](Cc1c[nH]cn1)NC(=O)[C@H](Cc1ccccc1)NC(=O)[C@H](CC(C)C)NC(=O)CNC(=O)[C@H](CCCCN)NC(=O)[C@@H](NC(=O)[C@@H](NC(=O)[C@H](Cc1c[nH]cn1)NC(=O)[C@H](Cc1ccccc1)NC(=O)[C@@H](NC(=O)[C@H](Cc1ccccc1)NC(=O)CN)[C@@H](C)CC)[C@@H](C)CC)[C@@H](C)CC)C(=O)N[C@@H](Cc1c[nH]cn1)C(=O)NCC(=O)N[C@@H](CC(C)C)C(=O)N[C@H](C(N)=O)C(C)C` [Epi-1, epinecidin-1] (H-GFIFHIIKGLFHAGKMIHGLV-NH2): the “pathogens killed (time-kill)” value in the series with MRSA [1] (1) is 90%. The “pathogens killed (time-kill)” value in the series with MRSA [1] (2) worked out at 90%. Further, in series [2] (setting [7]), the BUN result is reported as “Died”, the CRE entry is on record as “Died”, the GOT result was “Died” and the GPT entry was “Died”. In addition, the “Serum UA” value in series [2] (setting [7]) is “Died”. In series [2] (single i.v. injection, piglets starved 12 h, observed every 2 h up to 24 h), the “doses that did not cause abnormal behavior, mortality, or activity” value is given as “up to 100 mg/kg”. Besides, the “concentration of free Epi-1 in serum, initial” value in series [3] (15 min pre-incubation, nominal 100 µg/mL, ethanol precipitation, start, mean ± SEM, three independent experiments) amounted to 7360 ± 300 ng/mL. Moreover, the “time up to which the free Epi-1 concentration did not change (after the initial 30 min)” value in series [3] is listed as “up to 7 h”. Moreover, in series [3] (Figure 2C), the “time for which Epi-1 was stable in human serum in vitro” value is reported as “up to 400 min”. Moreover, the “concentration of free Epi-1 in serum after the initial 30 min” value in series [3] (nominal 100 µg/mL, ethanol precipitation, 30 min, mean ± SEM, three independent experiments) stood at 5940 ± 120 ng/mL. Moreover, in series [4] (i.v.), the “time post i.v. injection up to which Epi-1 is stable in serum” value was “up to 4 h” and the “time post-injection up to which Epi-1 was detected in serum” value is listed as “up to 240 min”. For the same molecule, the half-life in “in vivo” (plasma) is ~4 h. The level at 5 h in “in vivo” (serum, 0.5 mg/kg) was 2920 ± 957 ng/mL. In the series “in vivo” (serum, 1.5 mg/kg), this molecule had a level at 10 min of 9061 ± 60 ng/mL and a level at 5 h of 3780 ± 219 ng/mL. The level at 5 h in the series “in vivo” (serum, 2.5 mg/kg) is 8880 ± 205 ng/mL.
As for `CN[C@H](CC(C)C)C(=O)N[C@H]1C(=O)N[C@@H](CC(N)=O)C(=O)N[C@H]2C(=O)N[C@H]3C(=O)N[C@H](C(=O)N[C@H](C(=O)O)c4cc(O)cc(O)c4-c4cc3ccc4O)[C@H](O)c3ccc(c(Cl)c3)Oc3cc2cc(c3O[C@@H]2O[C@H](CO)[C@@H](O)[C@H](O)[C@H]2O[C@H]2C[C@](C)(N)[C@H](O)[C@H](C)O2)Oc2ccc(cc2Cl)[C@H]1O` [vancomycin], in the series with MRSA [1] (at 24 h, about 1 × 10^6 cells, Figure 1B), the “killing of MRSA” value is on record as 95%. Further, in the series on MRSA [5] (MRSA 1 × 10^9 CFU/kg i.v., vancomycin 0.5 mg/kg i.v. 30 min post-infection, 7 days), the “survival against MRSA infection” value is 80%. Besides, the “Survival Rate (Day PI)” value in the series on MRSA [5] (MRSA 10^9 CFU/kg i.v., vancomycin 0.5 mg/kg, n=5) amounted to 80. Besides, in the series on MRSA [6], the “Heart: infective endocarditis (animals with clinical signs/total examined)” value was 0/5; the “Kidney: cystic tubules, cortical (animals with clinical signs/total examined)” value is reported as 0/5; the “Liver: liver abscess (animals with clinical signs/total examined)” value was 1/5; the “Lung: inflammation, pulmonary edema (animals with clinical signs/total examined)” value is reported as 2/5. In series [4] (vancomycin 0.5 mg/kg i.v., up to 360 min, LC-MS-MS, Supplementary Figure S1), the “course of the serum concentration of vancomycin” value is “very stable”.

Broadly, the half-life is how long it takes for the measured level to halve. A low value points to rapid decline.
